Measurements published in patent publication US9850256B2, “Antibacterial basic biaromatic derivatives with aminoalkoxy substitution” (priority 2014, dated 2017).
Values after ≈ are worked out from the molar mass of the structure shown.

Experiments:
Test in all cases: Bacterial growth minimal inhibitory concentration (microdilution, cation-adjusted Mueller-Hinton Broth)
S. aureus A798 = format: cell-based, Staphylococcus aureus; conditions: multiply-resistant strain (methicillin- and quinolone-resistant); for MIC: Staphylococcus aureus, A798
Experimental: (§1) Minimal Inhibitory Concentrations (MICs; mg/L) were determined in cation-adjusted Mueller-Hinton Broth by a microdilution method following the description given in “Methods for Dilution Antimicrobial Susceptibility Tests for Bacteria that Grow Aerobically”, Approved standard, 7th ed., Clinical and Laboratory Standards Institute (CLSI) Document M7-A7, Wayne, Pa., USA (2006).
(§2) All Example compounds were tested against several Gram positive and Gram negative bacteria. […] Staphylococcus aureus A798 is a multiply-resistant strain (methicillin- and quinolone-resistant), Klebsiella pneumoniae T6474 is a multiply-resistant strain (penicillin-, cephalosporin- and in particular quinolone-resistant), while E. coli ATCC25922 and Pseudomonas aeruginosa ATCC 27853 are quinolone-sensitive strains.

E. coli ATCC25922 = format: cell-based; conditions: quinolone-sensitive strain; for MIC: Escherichia coli, ATCC25922
Experimental: as §1, §2

K. pneumoniae T6474 = format: cell-based, Klebsiella pneumoniae; conditions: multiply-resistant strain (penicillin-, cephalosporin- and quinolone-resistant); for MIC: Klebsiella pneumoniae, T6474
Experimental: as §1, §2

P. aeruginosa ATCC 27853 = format: cell-based, Pseudomonas aeruginosa; conditions: quinolone-sensitive strain; for MIC: Pseudomonas aeruginosa, ATCC27853
Experimental: as §1, §2

| Structure (SMILES) | MIC for S. aureus A798 (S. aureus A798) [µg/mL] | MIC for E. coli ATCC25922 (E. coli ATCC25922) [µg/mL] | MIC for K. pneumoniae T6474 (K. pneumoniae T6474) [µg/mL] | MIC for P. aeruginosa ATCC 27853 (P. aeruginosa ATCC 27853) [µg/mL] | MIC (S. aureus A798) [µg/mL] | MIC (E. coli ATCC25922) [µg/mL] | MIC (K. pneumoniae T6474) [µg/mL] | MIC (P. aeruginosa ATCC 27853) [µg/mL] |
| --- | --- | --- | --- | --- | --- | --- | --- | --- |
| NC1[C@H]2CN(CCOc3cccc(-c4cccc(CNCC[C@H]5CN(c6ccc7c(n6)NC(=O)CO7)C(=O)O5)c4)c3)C[C@@H]12 (mixture of isomers) [Example $117, 6-{(S)-5-[2-({3′-[2-((1R*,5S*,6RS)-6-amino-3-aza-bicyclo[3.1.0]hex-3-yl)-ethoxy]-biphenyl-3-ylmethyl}-amino)-ethyl]-2-oxo-oxazolidin-3-yl}-4H-pyrido[3,2-b][1,4]oxazin-3-one] | 1 | 1 | 1 | 4 |  |  |  |  |
| CN(C)CCOc1cccc(-c2cccc(CNCC[C@H]3CN(c4ccc5c(n4)NC(=O)CO5)C(=O)O3)c2)c1 [Example 2, 6-[(S)-5-(2-{[3′-(2-dimethylamino-ethoxy)-biphenyl-3-ylmethyl]-amino}-ethyl)-2-oxo-oxazolidin-3-yl]-4H-pyrido[3,2-b][1,4]oxazin-3-one] |  |  |  |  | 0.5 (≈ 0.941 µM) | 2 (≈ 3.76 µM) | 2 (≈ 3.76 µM) | 4 (≈ 7.52 µM) |
| CN1CC[C@H](Oc2cnnc(-c3cccc(CNCC[C@H]4CN(c5ccc6c(n5)NC(=O)CO6)C(=O)O4)c3)c2)C1 [Example $153, 6-[(S)-5-(2-{3-[5-((S)-1-methyl-pyrrolidin-3-yloxy)-pyridazin-3-yl]-benzylamino}-ethyl)-2-oxo-oxazolidin-3-yl]-4H-pyrido[3,2-b][1,4]oxazin-3-one] |  |  |  |  | 4 (≈ 7.33 µM) | 2 (≈ 3.67 µM) | 4 (≈ 7.33 µM) | 4 (≈ 7.33 µM) |
| CN1CCC[C@H]1COc1cccc(-c2cccc(CNCC[C@H]3CN(c4ccc5c(n4)NC(=O)CO5)C(=O)O3)c2)n1 [Example $130, 6-[(S)-5-(2-{3-[6-((S)-1-methyl-pyrrolidin-2-ylmethoxy)-pyridin-2-yl]-benzylamino}-ethyl)-2-oxo-oxazolidin-3-yl]-4H-pyrido[3,2-b][1,4]oxazin-3-one] |  |  |  |  | 0.25 (≈ 0.448 µM) | 1 (≈ 1.79 µM) | 2 (≈ 3.58 µM) | 4 (≈ 7.16 µM) |
| O=C1COc2ccc(N3C[C@H](CCNCc4cccc(-c5cccc(OCC6CNC6)n5)c4)OC3=O)nc2N1 [Example $106, 6-[(S)-5-(2-{3-[6-(azetidin-3-ylmethoxy)-pyridin-2-yl]-benzylamino}-ethyl)-2-oxo-oxazolidin-3-yl]-4H-pyrido[3,2-b][1,4]oxazin-3-one] |  |  |  |  | 2 (≈ 3.77 µM) | 2 (≈ 3.77 µM) | 4 (≈ 7.54 µM) | 1 (≈ 1.88 µM) |
| C[C@@H]1NCC[C@@H]1Oc1cccc(-c2cccc(CNCC[C@H]3CN(c4ccc5c(n4)NC(=O)CO5)C(=O)O3)c2)n1 (relative stereo) [Example $172, 6-[(S)-5-(2-{3-[6-((2S*,3S*)-2-methyl-pyrrolidin-3-yloxy)-pyridin-2-yl]-benzylamino}-ethyl)-2-oxo-oxazolidin-3-yl]-4H-pyrido[3,2-b][1,4]oxazin-3-one] |  |  |  |  | 0.5 (≈ 0.918 µM) | 1 (≈ 1.84 µM) | 2 (≈ 3.67 µM) | 0.5 (≈ 0.918 µM) |
| CNCCOc1cccc(-c2cccc(CNCC[C@H]3CN(c4ccc5c(n4)NC(=O)CO5)C(=O)O3)c2)n1 [Example $163, 6-[(S)-5-(2-{3-[6-(2-methylamino-ethoxy)-pyridin-2-yl]-benzylamino}-ethyl)-2-oxo-oxazolidin-3-yl]-4H-pyrido[3,2-b][1,4]oxazin-3-one] |  |  |  |  | 0.5 (≈ 0.964 µM) | 0.5 (≈ 0.964 µM) | 2 (≈ 3.86 µM) | 0.5 (≈ 0.964 µM) |
| CN1CC(Oc2cccc(-c3cccc(CNCC[C@H]4CN(c5ccc6c(n5)NC(=O)CO6)C(=O)O4)n3)n2)C1 [Example $188, 6-[(S)-5-(2-{[6′-(1-methyl-azetidin-3-yloxy)-[2,2′]bipyridinyl-6-ylmethyl]-amino}-ethyl)-2-oxo-oxazolidin-3-yl]-4H-pyrido[3,2-b][1,4]oxazin-3-one] |  |  |  |  | 1 (≈ 1.88 µM) | 1 (≈ 1.88 µM) | 2 (≈ 3.76 µM) | 4 (≈ 7.52 µM) |
| CN1CC[C@H](Oc2cccc(-c3cccc(CNCC[C@H]4CN(c5ccc6c(n5)NC(=O)CO6)C(=O)O4)c3)n2)C1 [Example $121, 6-[(S)-5-(2-{3-[6-((S)-1-methyl-pyrrolidin-3-yloxy)-pyridin-2-yl]-benzylamino}-ethyl)-2-oxo-oxazolidin-3-yl]-4H-pyrido[3,2-b][1,4]oxazin-3-one] |  |  |  |  | 0.25 (≈ 0.459 µM) | 0.5 (≈ 0.918 µM) | 0.5 (≈ 0.918 µM) | 1 (≈ 1.84 µM) |
| O=C1COc2ccc(N3C[C@H](CCNCc4cccc(-c5cccc(O[C@H]6CCNC6)n5)c4)OC3=O)nc2N1 [Example $119, 6-[(S)-2-oxo-5-(2-{3-[6-((S)-pyrrolidin-3-yloxy)-pyridin-2-yl]-benzylamino}-ethyl)-oxazolidin-3-yl]-4H-pyrido[3,2-b][1,4]oxazin-3-one] |  |  |  |  | 0.5 (≈ 0.942 µM) | 1 (≈ 1.88 µM) | 1 (≈ 1.88 µM) | 0.5 (≈ 0.942 µM) |
| CN1CCC(Oc2cccc(-c3cccc(CNCC[C@H]4CN(c5ccc6c(n5)NC(=O)CO6)C(=O)O4)c3)n2)CC1 [Example $127, 6-[(S)-5-(2-{3-[6-(1-methyl-piperidin-4-yloxy)-pyridin-2-yl]-benzylamino}-ethyl)-2-oxo-oxazolidin-3-yl]-4H-pyrido[3,2-b][1,4]oxazin-3-one] |  |  |  |  | 1 (≈ 1.79 µM) | 2 (≈ 3.58 µM) | 8 (≈ 14.3 µM) | 4 (≈ 7.16 µM) |
| NCCOc1cccc(-c2cccc(CNCC[C@H]3CN(c4ccc5c(n4)NC(=O)CO5)C(=O)O3)c2)c1 [Example 1, 6-[(S)-5-(2-{[3′-(2-amino-ethoxy)-biphenyl-3-ylmethyl]-amino}-ethyl)-2-oxo-oxazolidin-3-yl]-4H-pyrido[3,2-b][1,4]oxazin-3-one] |  |  |  |  | 2 (≈ 3.97 µM) | 1 (≈ 1.99 µM) | 1 (≈ 1.99 µM) | 2 (≈ 3.97 µM) |
| O=C1COc2ccc(N3C[C@H](CCNCc4cccc(-c5cccc(OC6CCCNC6)n5)c4)OC3=O)nc2N1.O=CO (mixture of isomers) [Example $111, 6-[(S)-2-oxo-5-(2-{3-[6-((RS)-piperidin-3-yloxy)-pyridin-2-yl]-benzylamino}-ethyl)-oxazolidin-3-yl]-4H-pyrido[3,2-b][1,4]oxazin-3-one formate] |  |  |  |  | 1 | 2 | 2 | 2 |
| CN1CC(Oc2cccc(-c3cccc(CNCC[C@@H]4CN(c5ccc6c(c5)NC(=O)CS6)C(=O)O4)c3)n2)C1 [Example $149, 6-[(R)-5-(2-{3-[6-(1-methyl-azetidin-3-yloxy)-pyridin-2-yl]-benzylamino}-ethyl)-2-oxo-oxazolidin-3-yl]-4H-benzo[1,4]thiazin-3-one] |  |  |  |  | 0.5 (≈ 0.916 µM) | 0.5 (≈ 0.916 µM) | 1 (≈ 1.83 µM) | 1 (≈ 1.83 µM) |
| CN1CC[C@H](Oc2cccc(-c3cccc(CNCC[C@H]4CN(c5ccc6c(n5)NC(=O)CO6)C(=O)O4)n3)n2)C1 [Example $129, 6-[(S)-5-(2-{[6′-((S)-1-methyl-pyrrolidin-3-yloxy)-[2,2′]bipyridinyl-6-ylmethyl]-amino}-ethyl)-2-oxo-oxazolidin-3-yl]-4H-pyrido[3,2-b][1,4]oxazin-3-one] |  |  |  |  | 2 (≈ 3.67 µM) | 4 (≈ 7.33 µM) | 4 (≈ 7.33 µM) | 8 (≈ 14.7 µM) |
| O=C1COc2ccc(N3C[C@H](CCNCc4cccc(-c5cccc(OCCN6CCCCC6)n5)c4)OC3=O)nc2N1 [Example 12, 6-[(S)-2-oxo-5-(2-{3-[6-(2-piperidin-1-yl-ethoxy)-pyridin-2-yl]-benzylamino}-ethyl)-oxazolidin-3-yl]-4H-pyrido[3,2-b][1,4]oxazin-3-one] |  |  |  |  | 0.063 (≈ 0.11 µM) | 1 (≈ 1.75 µM) | 2 (≈ 3.49 µM) | 2 (≈ 3.49 µM) |
